# Reference: patent US5990208A, “Stabilization of polycarbonate/ABS blends with mixtures of hindered amines and UV absorbers” (Ciba Specialty Chemicals Corporation, priority 1997, dated 1999)
# What was measured:
# [1] = Weight loss of additive by thermogravimetric analysis (TGA); assay type: physicochemical; settings: 5° C./min, nitrogen; for Temperature at which stated weight loss of additive occurs, 5%: 5% weight loss; for Temperature at which stated weight loss of additive occurs, 10%: 10% weight loss
# Procedure: Weight loss data for the hindered amines are obtained by thermogravimetric analysis on a DuPont model 2100 analyzer, operated at a scan rate of 5° C./min in a nitrogen atmosphere using 4-5 mg sample in aluminum pans.
# [2] = pKa of hindered amines by non-aqueous titration; assay type: physicochemical; settings: extrapolated from calibration plot
# From the text: The pKa measurements of the hindered amines are obtained by non-aqueous titration. Organic reference materials with known pKa values in water, are titrated in non-aqueous media (1:1 acetonitrile:chloroform and 0.1 N perchloric acid/dioxane titrant system) to generate a non-aqueous calibration plot of half-neutralization potential (HNP) versus pKa. The "unknown" hindered amines are then titrated to determine the HNP, and extrapolated to obtain the corresponding pKa from this calibration plot.
# [3] = Discoloration (delta E), Dry XAW, two-pass compounded clear PC/ABS (Example 6); settings: in words
# Procedure: Accelerated weathering is performed using an Atlas Ci65A Weather-o-meter ("XAW"), operated in either "Dry XAW" mode (ASTM G26-90 method C) or interior auto ("IAXAW") (black panel temperature 89° C., light/dark cycle 3.8 hr/1.0 hr; irradiance 0.55 watt/m^2, inner filter-quartz, outer filter--high borate.
# Yellowness Index and delta E color are performed as per ASTM D-1925, using a Chroma-Sensor CS-5 Colorimeter, operated at 10 degree, small area view, specular included.
# This polymer blend is prepared by two-step compounding. The hindered amine is extrusion compounded with ABS on a 18 mm twin screw extruder with set temperatures (throat to die, ° C.) of 170/200/215/225/225/225. The ABS is optionally redried then extrusion compounded with an equal weight of polycarbonate to achieve a 50/50 wt/wt ratio blend. TINUVIN® 234 is added during the second extrusion compounding step although the UV absorber can also be added during the first compounding step.
# Thereafter, chip impact bars are prepared and subjected to dry XAW accelerated weathering. The samples are removed at selected intervals for color measurement and then for destructive chip impact testing.
"Temperature at which stated weight loss of additive occurs, 10% [1] [°C]",Approximate pKa [2],"Temperature at which stated weight loss of additive occurs, 2% ([1]; 2% weight loss (printed in 5% column)) [°C]","Temperature at which stated weight loss of additive occurs, 1% ([1]; 1% weight loss (printed in 5% column)) [°C]",Compound,"Temperature at which stated weight loss of additive occurs, 5% [1] [°C]",color stability [3]
236,~4.4,,,"CCCCCCCCON1C(C)(C)CC(OC(=O)CCCCCCCCC(=O)OC2CC(C)(C)N(OCCCCCCCC)C(C)(C)C2)CC1(C)C [TINUVIN ® 123, bis(1-octyloxy-2,2,6,6-tetramethylpiperidin-4-yl) sebacate]",222,
372,~6.1,319,,"CN1C(C)(C)CN(CCN(c2nc(N(CCN3CC(C)(C)N(C)C(C)(C)C3=O)C3CCCCC3)nc(N(CCN3CC(C)(C)N(C)C(C)(C)C3=O)C3CCCCC3)n2)C2CCCCC2)C(=O)C1(C)C [GOODRITE ® 3159, 1,3,5-tris{N-cyclohexyl-N-[2-(3,3,4,5,5-pentaamethylpiperazin-2-on-1-yl)ethyl]amino}-s-triazine]",,
,,,,"CC(C)(c1ccccc1)c1cc(-n2nc3ccccc3n2)c(O)c(C(C)(C)c2ccccc2)c1 [TINUVIN® 234, 2-(2-hydroxy-3,5-di-α-cumylphenyl)-2H-benzotriazole]",,reasonably equivalent color stability
260,~9.0,,200,"CC1(C)CC(OC(=O)CCCCCCCCC(=O)OC2CC(C)(C)NC(C)(C)C2)CC(C)(C)N1 [TINUVIN ® 770, bis(2,2,6,6-tetramethylpiperidin-4-yl) sebacate]",,

Compound,"Temperature at which stated weight loss of additive occurs, 10% [1] [°C]",Approximate pKa [2],"Temperature at which stated weight loss of additive occurs, 2% ([1]; 2% weight loss (printed in 5% column)) [°C]","Temperature at which stated weight loss of additive occurs, 1% ([1]; 1% weight loss (printed in 5% column)) [°C]","Temperature at which stated weight loss of additive occurs, 5% [1] [°C]",color stability [3]
"CC1(C)CN(CCN(c2nc(N(CCN3CC(C)(C)NC(C)(C)C3=O)C3CCCCC3)nc(N(CCN3CC(C)(C)NC(C)(C)C3=O)C3CCCCC3)n2)C2CCCCC2)C(=O)C(C)(C)N1 [GOODRITE ® 3150, 1,3,5-tris{N-cyclohexyl-N-[2-(3,3,5,5-tetramethylpiperazin-2-on-1-yl)ethyl]amino}-s-triazine]",362,~6.7,,,345,reasonably equivalent color stability
